Results: patent US11008290B2, “Halogenated quinoline derivatives as antimicrobial agents” (University of Florida Research Foundation, Incorporated, priority 2015, dated 2021)
Converted amounts (≈) assume the structure as drawn. Like-named read-outs stand apart in the source and are kept apart here.

Columns and labels:
[1] = system: MRSA BAA-1707; assay: Calgary Biofilm Device (CBD) MBC/MBEC determination; format: cell-based, Staphylococcus aureus; conditions: for MBC: Staphylococcus aureus, read-out: MRSA BAA-1707 MBC; for MRSA BAA-1707 MBEC: biofilm eradication, second value of cell
Description: (§1) Biofilm eradication experiments were performed using the Calgary Biofilm Device to determine MBC/MBEC values for various compounds of interest (Innovotech, product code: 19111). The Calgary device (96-well plate with lid containing 96 total pegs to establish biofilms; 1 peg/well) was inoculated with 125 μL of a mid-log phase culture diluted 1,000-fold in tryptic soy broth with 0.5% glucose (TSBG) to establish bacterial biofilms after incubation at 37° C. for 24 hours. The lid of the Calgary device was then removed, washed and transferred to another 96-well plate containing 2-fold serial dilutions of the test compounds (the “challenge plate”). The total volume of media with compound in each well in the challenge plate was 150 μL. The Calgary device was then incubated at 37° C. for 24 hours. The lid was then removed from the challenge plate and MBC/MBEC values were determined using different final assays. […] The MBC values were determined as the concentration giving a lack of visible bacterial growth (e.g., turbidity). For determination of MBEC values, the Calgary device lid (with attached pegs/treated biofilms) was transferred to a new 96-well plate containing 150 μL of fresh TSBG media in each well and incubated for 24 hours at 37° C. to allow viable biofilms to grow and disperse resulting in turbidity after the incubation period. […] In select experiments, treated pegs from the Calgary device were removed from lead biofilm eradicators after final incubation, sonicated for 30 minutes in PBS and plated out to determine biofilm cell killing (e.g., colony forming unit per milliliter, CFU/mL).

[2] = system: MRSA-2 planktonic cells and biofilms; assay: as above; format: cell-based, Staphylococcus aureus; conditions: CBD; for MBC: planktonic killing, first value of MBC/MBEC cell
Description: as §1

[3] = system: MRSE (ATCC 35984) planktonic cells and biofilms; assay: as above; format: cell-based, Staphylococcus epidermidis; conditions: for MBC: Staphylococcus epidermidis
Description: as §1

[4] = system: VRE (ATCC 700221) planktonic cells and biofilms; assay: as above; format: cell-based, Enterococcus faecium; conditions: Enterococcus
Description: as §1

[5] = system: vancomycin-resistant Enterococcus faecium (VRE, ATCC 700221); assay: Minimum inhibitory concentration (MIC) susceptibility assay, broth microdilution; format: cell-based; conditions: read-out: VRE MIC
Description: (§2) The minimum inhibitory concentration (MIC) for each compound was determined by the broth microdilution method as recommended by the Clinical and Laboratory Standards Institute (CLSI). In a 96-well plate, eleven two-fold serial dilutions of each compound were made in a final volume of 100 μL Luria Broth. Each well was inoculated with ˜10^5 bacterial cells at the initial time of incubation, prepared from a fresh log phase culture (OD600 of 0.5 to 1.0 depending on bacterial strain). […] The concentration range tested for each compound during this study was 0.10 to 100 μM. DMSO served as the vehicle and negative control in each microdilution MIC assay. DMSO was serially diluted with a top concentration of 1% v/v. Bacterial strains used: methicillin-resistant Staphylococcus aureus-2 (MRSA-2; clinical isolate from Shands Hospital in Gainesville, Fla.), methicillin-resistant Staphylococcus epidermidis (MRSE; ATCC 35984), vancomycin-resistant Enterococcus faecium (VRE, ATCC 700221).

[6] = system: methicillin-resistant Staphylococcus aureus-2 (MRSA-2; clinical isolate); assay: as above; format: cell-based
Description: as §2

[7] = system: human red blood cells; assay: Hemolysis assay; format: cell-based
Description: Freshly drawn human red blood cells (hRBC with ethylenediaminetetraacetic acid (EDTA) as an anticoagulant) were washed with Tris-buffered saline (0.01M Tris-base, 0.155M sodium chloride (NaCl), pH 7.2) and centrifuged for 5 minutes at 3500 rpm. The washing was repeated three times with the buffer. In 96-well plate, the test compounds were added to the buffer. […] The plate was then incubated for 1 hour at 37° C. After incubation, the plate is centrifuged for 5 minutes at 3500 rpm. Then 80 μL of the supernatant were transferred to another 96-well plate and the Optical Density (OD) was read at 405 nm. […] The percent of hemolysis was calculated as (OD405 of the compound-OD405 DMSO)/(OD405 Triton X-OD405 buffer).

[8] = system: methicillin-resistant Staphylococcus epidermidis (MRSE; ATCC 35984); assay: Minimum inhibitory concentration (MIC) susceptibility assay, broth microdilution; format: cell-based; conditions: read-out: MRSE MIC
Description: as §2

[9] = Table 4, planktonic killing, CBD, first value of cell
[10] = Staphylococcus aureus, MRSA, Table 3, read-out: MRSA-2 MBC
[11] = Table 3, planktonic killing, CBD, first value of cell, read-out: MRSE MBC
[12] = Table 3, planktonic killing, CBD, first value of cell, footnote c = lowest concentration tested, read-out: VRE MBC
[13] = Staphylococcus, MRSA, Table 3, at least three independent experiments, read-out: MRSA-2 MIC
[14] = Table 2, read-out: MRSA-2 Clinical Isolate MBC
[15] = Staphylococcus epidermidis, Table 2, ATCC 35984
[16] = Staphylococcus, MRSA, Table 2, 2 to 6 independent experiments, read-out: MRSA-2 MIC
[17] = Table 2, human red blood cells, 1 hour at 37° C.
[18] = Staphylococcus epidermidis, Table 3

CCCc1ccc2c(Br)cc(Br)c(O)c2n1 [A-HQ-3]
MBC [1, 9]: 31.3 µM (≈ 10.8 µg/mL)
MBC [2, 10]: 125 µM (≈ 43.1 µg/mL)
MBC [3, 11]: 9.38 µM (≈ 3.24 µg/mL)
MBC [4, 12]: 2 µM (≈ 0.69 µg/mL)
MIC ([5]; Table 3): 0.78 µM (≈ 0.269 µg/mL)
MIC [6, 13]: 0.78 µM (≈ 0.269 µg/mL)
% Haemolysis at 200 μM ([7]; human, 1 h, pH 7.2): ≤1%

CC(C)Cc1ccc2c(Br)cc(Br)c(O)c2n1 [A-HQ-5]
MBC [1, 9]: 31.3 µM (≈ 11.2 µg/mL)
MIC ([5]; Table 3): 100 µM (≈ 35.9 µg/mL)
MIC [6, 13]: 0.78 µM (≈ 0.28 µg/mL)
% Haemolysis at 200 μM ([7]; human, 1 h, pH 7.2): 12.3%

O=Cc1ccc2c(Br)cc(Br)c(O)c2n1 [Compound 2, 5,7-dibromo-8-hydroxyquinoline-2-carbaldehyde]
melting point: 154 to 156 °C

CCCCCCCCCC(=O)N[C@@H](Cc1c[nH]c2ccccc12)C(=O)N[C@H](CC(N)=O)C(=O)N[C@@H](CC(=O)O)C(=O)N[C@@H]1C(=O)NCC(=O)N[C@@H](CCCN)C(=O)N[C@@H](CC(=O)O)C(=O)N[C@H](C)C(=O)N[C@@H](CC(=O)O)C(=O)NCC(=O)N[C@H](CO)C(=O)N[C@@H]([C@H](C)CC(=O)O)C(=O)N[C@@H](CC(=O)c2ccccc2N)C(=O)O[C@@H]1C [Daptomycin, reference compound]
MBC [1, 9]: 125 µM (≈ 203 µg/mL)
MRSA BAA-1707 MBEC ([1]; Table 4, CBD): unable to eradicate
MBC [2, 10]: 62.5 µM (≈ 101 µg/mL)
MBC [2, 14]: 62.5 µM (≈ 101 µg/mL)
MIC [8, 15]: 12.5 µM (≈ 20.3 µg/mL)
MIC ([8]; Table 3): 12.5 µM (≈ 20.3 µg/mL)
% Haemolysis at 200 μM ([7]; human, 1 h, pH 7.2): 1.7%

Oc1c(Br)cc(Br)c2ccc(CNc3ccccc3)nc12 [HQ-3]
MBC [1, 9]: 62.5 µM (≈ 25.5 µg/mL)
MBC ([2]; Staphylococcus aureus, MRSA, Table 2, read-out: MRSA-2 Clinical Isolate MBC): 125 µM (≈ 51 µg/mL)
MRSA-2 MBEC ([2]; Table 3, biofilm eradication, second value of MBC/MBEC cell): equipotent biofilm eradication activities
MBC ([3]; Table 2, planktonic killing, CBD, first value of cell, read-out: MRSE ATCC 35984 MBC): 7.8 µM (≈ 3.18 µg/mL)
MBC ([4]; Table 2, planktonic killing, CBD, first value of cell, read-out: VRE ATCC 700221 MBC): 7.8 µM (≈ 3.18 µg/mL)
MIC ([5]; 18 h, Table 2, ATCC 700221): 0.39 to 0.78 µM (≈ 0.159 to 0.318 µg/mL)
MIC ([5]; Table 2, ATCC 700221): 0.78 µM (≈ 0.318 µg/mL)
MIC ([8]; Staphylococcus epidermidis, 18 h, Table 2, ATCC 35984): 0.15 to 0.3 µM (≈ 0.0612 to 0.122 µg/mL)
MIC [8, 15]: 0.15 µM (≈ 0.0612 µg/mL)
MIC [6, 16]: 0.78 µM (≈ 0.318 µg/mL)
MIC ([6]; Staphylococcus, MRSA, read-out: MIC): 1.13 µM (≈ 0.461 µg/mL)

N#Cc1ccc2c(Br)cc(Br)c(O)c2n1 [HQ-8, 5,7-dibromo-8-hydroxyquinoline-2-carbonitrile]
melting point: 172 to 174 °C

OCc1ccc2c(Br)cc(Br)c(O)c2n1 [HQ-11, 5,7-dibromo-2-(hydroxymethyl)quinolin-8-ol]
melting point: 131 to 133 °C

CC(O)c1ccc2c(Br)cc(Br)c(O)c2n1 (stereo not drawn) [HQ-13, 5,7-dibromo-2-(1-hydroxyethyl)-8-hydroxyquinoline]
melting point: 114 to 116 °C

N=C(N)c1ccc2c(Br)cc(Br)c(O)c2n1 [HQ-14, 5,7-dibromo-8-hydroxyquinoline-2-carboximidamide]
melting point: 172 to 174 °C

CC(=O)NC[C@H]1CN(c2ccc(N3CCOCC3)c(F)c2)C(=O)O1 [Linezolid, reference compound]
MBC [1, 9]: 31.3 µM (≈ 10.6 µg/mL)
MRSA BAA-1707 MBEC ([1]; Table 4, CBD): unable to eradicate
MIC ([5]; Table 2, ATCC 700221): 3.13 µM (≈ 1.06 µg/mL)
MIC ([5]; Table 3): 3.13 µM (≈ 1.06 µg/mL)
MIC [8, 15]: 3.13 µM (≈ 1.06 µg/mL)
MIC ([8]; Table 3): 3.13 µM (≈ 1.06 µg/mL)
MIC [6, 16]: 3.13 µM (≈ 1.06 µg/mL)
MIC ([6]; Table 3, at least three independent experiments, read-out: MRSA-2 MIC): 3.13 µM (≈ 1.06 µg/mL)
% Haemolysis at 200 μM [7, 17]: ≤1%
% Haemolysis at 200 μM ([7]; Table 3, human red blood cells): ≤1%

Oc1c(Br)cc(Br)c2ccc(CNc3ccc(F)cc3)nc12 [RA-HQ-12]
fold more potent than HQ-1 (MBEC) ([1]; MRSA BAA-1707): 6 fold
MBC [1, 9]: 15.6 µM (≈ 6.65 µg/mL)
MBC [2, 10]: 31.3 µM (≈ 13.3 µg/mL)
MBEC:MBC ratio ([3]; MRSE 35984, CBD): ~1
MBC [3, 11]: 3.9 µM (≈ 1.66 µg/mL)
MBC [4, 12]: 1 µM (≈ 0.426 µg/mL)
MIC ([5]; Table 3): 0.78 µM (≈ 0.332 µg/mL)
MIC [8, 18]: 0.39 µM (≈ 0.166 µg/mL)
MIC [6, 13]: 0.39 µM (≈ 0.166 µg/mL)
% Haemolysis at 200 μM ([7]; human, 1 h, pH 7.2): ≤1%

Oc1c(Br)cc(Br)c2ccc(CNc3ccccc3Br)nc12 [RA-HQ-16]
MBC [1, 9]: 93.8 µM (≈ 45.7 µg/mL)
MBC [2, 10]: 188 µM (≈ 91.6 µg/mL)
MBC [3, 11]: 46.9 µM (≈ 22.8 µg/mL)
MBC [4, 12]: 7.8 µM (≈ 3.8 µg/mL)
MIC ([5]; Table 3): 0.78 µM (≈ 0.38 µg/mL)
MIC [8, 18]: 0.2 µM (≈ 0.0974 µg/mL)
MIC [6, 13]: 1.56 µM (≈ 0.76 µg/mL)
% Haemolysis at 200 μM ([7]; human, 1 h, pH 7.2): ≤1%

CN[C@H](CC(C)C)C(=O)N[C@H]1C(=O)N[C@@H](CC(N)=O)C(=O)N[C@H]2C(=O)N[C@H]3C(=O)N[C@H](C(=O)N[C@H](C(=O)O)c4cc(O)cc(O)c4-c4cc3ccc4O)[C@H](O)c3ccc(c(Cl)c3)Oc3cc2cc(c3O[C@@H]2O[C@H](CO)[C@@H](O)[C@H](O)[C@H]2O[C@H]2C[C@](C)(N)[C@H](O)[C@H](C)O2)Oc2ccc(cc2Cl)[C@H]1O [Vancomycin, reference compound]
MBC [1]: 5.9 µM (≈ 8.55 µg/mL)
MRSA BAA-1707 MBEC ([1]; Table 4, CBD): unable to eradicate
MBC ([2]; Staphylococcus aureus, MRSA, read-out: MRSA-2 Clinical Isolate MBC, Table 2): 3 to 62.5 µM (≈ 4.35 to 90.6 µg/mL)
MBC ([2]; Staphylococcus aureus, MRSA, read-out: MRSA-2 MBC, Table 3): 3 µM (≈ 4.35 µg/mL)
MBC [2, 14]: 3.0 µM (≈ 4.35 µg/mL)
MBC ([3]; read-out: MRSE ATCC 35984 MBC): 3 µM (≈ 4.35 µg/mL)
MBC ([3]; read-out: MRSE MBC): 3 µM (≈ 4.35 µg/mL)
MBC ([4]; read-out: VRE ATCC 700221 MBC): > 200 µM
MBC ([4]; read-out: VRE MBC): > 200 µM
MIC ([5]; Table 3): >100 µM
MIC [5]: > 100 µM
% Haemolysis at 200 μM [7, 17]: ≤1%
% Haemolysis at 200 μM ([7]; Table 3, human red blood cells): ≤1%
